The source of these data is publication PMC8247886, “Getting a Grip on the Undrugged: Targeting β‐Catenin with Fragment‐Based Methods” (Chemmedchem, 2021).

The target in data set [1] is T1, β-catenin141–305 (Homo sapiens, UniProt P35222).
T1 construct: Amino acids 141-305 of uniprot ID: P35222; GST (cleaved yes); made in house; host or cells: E. coli BL21 (DE3)
T1 sequence (P35222 141-305): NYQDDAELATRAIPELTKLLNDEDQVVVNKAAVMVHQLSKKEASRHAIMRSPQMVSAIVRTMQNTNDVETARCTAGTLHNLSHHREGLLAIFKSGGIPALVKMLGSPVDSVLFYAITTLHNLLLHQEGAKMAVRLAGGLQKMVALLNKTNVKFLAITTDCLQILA
Description: Surface Plasmon Resonance (SPR) Kd determination. The class given is binding. The settings on record: mean of three independent experiments ± SD; 1:1 steady-state fit. How it is done: Surface Plasmon Resonance (SPR)
A Biacore T200 instrument was used for SPR analysis, β-catenin141-305 was pre-diluted to a concentration of 0.1 mg/mL with 10 mM sodium acetate buffer, pH 5.0 and immobilized at a density of 6000 –7000 response units on flow cell 2 of a Biacore CM5 chip. Carbonic anhydraseII served as a reference protein on flow cell 3 and flow cell 1 was kept blank and used as the reference surface. A mixture of 20 mM Tris, pH 7.5, 150 mM NaCl, 0.5 mM TCEP, 0.005% Tween20, 2 % dimethyl sulfoxide was used as assay buffer. After pre -equilibration of the chip with 10 blank injections, the Kd measurements were performed by injecting a concentration series of analyte (9 concentrations, 1:1 dilutions). BCL9 347-392 served as a positive control. K d values were determined by global fitting of the steady-state response for each of the 9 concentrations to a 1:1 interaction model using the Biacore T200 evaluation software. Each compound was injected three times and […]
average Kd values were calculated from the repeats. The reported data are the mean values of three independent experiments ± standard deviations. […]
Glutamax Supplement (Thermo Fisher Scientific, 35050061) with 10% FCS (GE Healthcare, SH30071.03). Transfections were performed with Lipofectamine LTX Reagent (Thermo Fisher, 15338100) according the manufacturer’s instructions.

The nature of data set [2]: Solubility in NMR buffer at pH 7.5 by quantitative NMR (maleic acid external standard). The settings on record: NMR buffer (Tris/NaCl with 2% DMSO-d6), aqueous buffer, kinetic from dmso stock; NMR buffer pH 7.5; intended concentration 500 or 2000 μM; read-out: Solub. pH 7.5. The class given is physicochemical. How it is done:
buffer (Tris 25 mM, pH 7.5, NaCl 150 mM) containing 2% DMSO-d6. […]
Solubility of compounds was determined in NMR buffer at pH 7.5 (see above) by integrating the
signal of 250 µM maleic acid as an external standard relative to the integrals of the ligands. If the
intended concentrations of 500 µM respective 2000 µM were reached the value is reported as >
500 µM or > 2000 µM. […]

Data set [3] has as its target T1, β-catenin141–305. The data set is described as follows: 2D 15N NMR (TROSY/HSQC/HMQC) detected binding and Kd titration. How it is done: The construct for expression of β-catenin141-305 (Amino acids 141-305 of uniprot ID: P35222) is based on the previously reported R4 construct1. The plasmid was used to transform E. coli, strain BL21 (DE3) cells (Invitrogen). For protein expression, an overnight culture in LB-medium supplemented ampicillin (100 µg/mL) at 37 °C was prepared and diluted the next day with fresh 2xYT-medium. At OD600 of 0.8 the culture was cooled down to 18 °C and after induction with 0.5 mM IPTG incubated for 20 h. Cell pellets obtained by centrifugation at 5000 rpm were stored at - 20 °C. Cells were solubilized in buffer A (2X Dulbecco’s PBS; 500 mM NaCl; 10 % Glycerol; 0.5 mM TCEP; cOmplete™ Protease Inhibitor Cocktail; pH 7.4) and disrupted by sonication (Sonopuls, Bandelin) on ice. After 30 min the sonicated lysate was clarified by centrifugation (50 min, 13500 rpm, 4 °C). The supernatant was mixed with 20 mL Glutathione Sepharose® 4B resin (GE Healthcare) slurry, washed in lysis buffer, and steered for 3 hours on ice. The beads were spun down, loaded into a XK16 column cartridge and washed with lysis buffer until baseline. The protein was eluted with buffer B (2X Dulbecco’s PBS; 500 mM NaCl; 10 % Glycerol; 0.5 mM TCEP;; pH 7.4) + 25 mM L-Glutathione reduced. After cleavage with 2000 units Human Alpha Thrombin (Enzyme Research Laboratories) at room temperature overnight, the protein was collected in the flow-through fraction of a second GST run (GSTrap HP 5 mL column; GE Healthcare) using buffer B. The flow-through was concentrated by centrifugation using an Amicon© Ultra 15 mL Centrifugal Filter (Merck Millipore) and loaded onto a HiLoad Superdex S75 column (GE Healthcare) equilibrated with 50 mM Tris; 200 mM NaCl; 3 mM DTT; pH 8.
Fractions were analyzed by SDS-PAGE and fractions containing the desired protein were pooled and concentrated with an Amicon© Ultra 15 mL Centrifugal Filter (Merck Millipore). […]
For confirmation of hits obtained from STD-NMR by 2D 15N TROSY NMR4 a Bruker Avance III 600 MHz instrument with a 5 mm cryo-TCI probe and z-gradient was used. The experimental set up (automated sample preparation and transfer into the magnet by a Tecan Freedom Evo pipetting robot and a Bruker Sample Rail system, respectively) was identical. Each sample contained 25 uM 15N labeled β-catenin141-305 25 mM sodium phosphate, 150 mM sodium chloride, 100 mM sodium nitrate, 0.5mM TCEP pH 6.8 in H2O at 25 °C and 8% (v/v) D2O. The protein was incubated with 500 uM fragment in a 2.5 mm NMR tube at 25 °C and a d6DMSO concentration of 1%. Spectra were recorded with 48 transients and 64 data points in the indirect dimension. Manual comparison of the spectrum in the presence of the to be tested fragment with the DMSO reference spectrum reveal either line broadening or chemical shift perturbation of cross peaks. Both effects are indicative for compound binding. All processing and analysis was done with the Topspin 2.1 software (Bruker BioSpin). Further spectral comparisons were performed with the FELIX software package (Felix NMR Inc.) to combine manual with automated analysis5. […]
700MHz spectrometer equipped with a cryogenically cooled 5mm TCI probe. […]
The
WaterLOGSY pulse sequence was used as described before7. Selective water inversion was achieved with a double excitation sculpting element employing water selective Gaussian refocusing pulses (inversion bandwidth of 0.5 ppm, pulse length of 7.5 ms). The number of scans was set to 2048. Sample concentrations were 0.5 mM ligand and 0.25–10 µM β-catenin135-663 in […]

Data set [4] addresses β-catenin. Also noted: method as in PMID 11237626. The settings on record: read-out: binding affinity to β-catenin; cited from earlier work.
In data set [5] the target is T1, β-catenin141–305. Description: Microscale Thermophoresis (MST) screening and Kd determination. The class given is binding. How it is done: buffer (Tris 25 mM, pH 7.5, NaCl 150 mM) containing 2% DMSO-d6. A stock solution of β-catenin135-663 (12.5 µM) was dialyzed before into Tris 25 mM pH 7.6 NaCl 150 mM and centrifuged at 4° C at 15000 rpm for 20 minutes. Intensity ratios Ilogsy/I1D are derived from scaling of the 1D intensity to the corresponding LOGSY intensity. STD GEMs were acquired with 1.5 µM […]
2.0; and 3.0 seconds for the saturation time build up curves to determine the initial rate constants2.
STD experiments were acquired with on and off resonance saturation at +0.1ppm and -40ppm respectively with 1048 scans each.
Solubility of compounds was determined in NMR buffer at pH 7.5 (see above) by integrating the signal of 250 µM maleic acid as an external standard relative to the integrals of the ligands. If the intended concentrations of 500 µM respective 2000 µM were reached the value is reported as > 500 µM or > 2000 µM. Compound 3 only reached a concentration of 1000 µM according to the QNMR experiment even though 2000 µM was intended, it’s solubility is therefore reported as […]
Microscale Thermophoresis.
Fluorescence labeling of β-catenin141-305 with the NT647 dye was achieved using the Monolith NT.115 Protein Labeling Kit RED-NHS according to the manufacturer’s protocol (NanoTemper Technologies, Munich, Germany). The BCL9 peptide was used as positive control for assay development to achieve a reliably detectable change in the thermophoretic mobility ( ΔFnorm). […]
Final assay conditions were 50 nM NT647 labeled β-catenin141-305 in PBS pH 6.8 supplemented with 100 mM NaNO3, 0.5 mM TCEP and 0.05% Tween-20 at 25° C. Fragment screening detected […]
by MST was carried out as previously described8,9. […] Manual inspection of all MST traces was used to reject non-standard traces stemming from protein aggregation, bleaching, or fluorescence quenching. ΔFnorm values (ΔFnorm=Fhot/Fcold) were calculated and the mean values of the duplicates were compared to the mean values of the DMSO negative control. […] Protein integrity over the entire FBS was monitored by the BCL9 peptide positive control. […]
On the technique in general: MST reads how a fluorescent partner responds to local heating, with and without ligand.

[6] abbreviates: 15N NMR titration, single titration, mean of curves of selected cross peaks ± SD, read-out: HSQC Kd.

Values after ≈ are worked out from the molar mass of the structure shown.

Turning to `CN1C[C@H](c2ccccc2)Oc2ccccc2C1=O` [Compound 5], the Kd in data set [1] and in data set [3] (setting [6]) was over 10000 µM each time. In addition, in data set [2], the solubility is over 2000 µM.

Regarding “TCF4: transcription factor, natural binding partner of β-catenin”, in data set [4], the Kd was about 0.02 µM.

With `CN1C[C@@H](c2cccc(C#N)c2)Oc2ccccc2C1=O` [Compound 6], the Kd in data set [1] was 1390 ± 46 µM; in data set [3] (setting [6]), 915 ± 303 µM; in data set [3] (titration curve of single cross peak D207, read-out: NMR Kd, cross peak D207), 1010 µM; in data set [3] (titration curve of single cross peak G245, read-out: NMR Kd, cross peak G245) it was 575 µM; in data set [3] (titration curve of single cross peak V208, read-out: NMR Kd, cross peak V208), 1160 µM. In addition, in data set [2], the solubility is over 2000 µM.

On to `CN1C[C@@H](c2ccccc2)Oc2ccccc2C1=O` [Compound 4], for which the values for the Kd in data set [1] and in data set [3] (setting [6]) were over 10000 µM and 2260 ± 1260 µM, respectively. Besides, the solubility in data set [2] was over 2000 µM.

As for `CN1CC(c2ccccc2)Nc2ccccc2C1=O` (stereo not shown) [Compound 3], the solubility in data set [2] was 1000 µM (≈ 252 µg/mL). In addition, the Kd in data set [3] (setting [6]) is 1100 ± 255 µM.

Turning to `CN1C[C@H](c2cccc(C#N)c2)Oc2ccccc2C1=O` [Compound 7], the Kd in data set [1] and in data set [3] (setting [6]) was over 10000 µM in each case. In addition, in data set [2], the solubility was over 2000 µM. For the same compound, in data set [3] (500 μM compound), the “chemical shift perturbations (CSPs) in 2D 15N NMR” value is listed as “did not show any CSPs”.

Take `CC1SCC(=O)Nc2cc(Cl)ccc21` (stereo not shown) [Compound 2]: the solubility in data set [2] is over 500 µM. Besides, in data set [5] (50 nM labeled β-catenin141–305, single titration), the Kd stood at 820 ± 320 µM. The “MST binding signal ΔΔF nom” value in data set [5] (500 μM compound, 1 % DMSO, standard deviation with DMSO 1.8‰) is recorded as 7.5 ‰.
